From ChEMBL document CHEMBL1147204, “Synthesis and antimicrobial evaluation of some new thiazole, thiazolidinone and thiazoline derivatives starting from 1-chloro-3,4-dihydronaphthalene-2-carboxaldehyde” (2007) come the findings set out here.

Molecules are shown by their SMILES.

Common to all, as to type: functional
Assay [1] deals with Bacillus subtilis. The experiment in a line: Antimicrobial activity against Bacillus subtilis by agar diffusion technique.
Assay [2] concerns Priestia megaterium. Kind of assay: Antimicrobial activity against Bacillus megaterium by agar diffusion technique.
Assay [3] concerns Escherichia coli. The experiment in a line: Antimicrobial activity against Escherichia coli by agar diffusion technique.
In assay [4] the test system is Aspergillus niger. Kind of assay: Antifungal activity against Aspergillus niger by agar diffusion technique.
Assay [5] has as its system Aspergillus oryzae. Kind of assay: Antifungal activity against Aspergillus oryzae by agar diffusion technique.
Assay [6] relates to Bacillus subtilis. Kind of assay: Antimicrobial activity against Bacillus subtilis at 25 ug/mL by agar diffusion technique. The following applies: read-out: IZ.
Assay [7] concerns Priestia megaterium. Kind of assay: Antimicrobial activity against Bacillus megaterium at 25 ug/mL by agar diffusion technique. The following applies: read-out: IZ.
For assay [8], the system named is Escherichia coli. The experiment in a line: Antimicrobial activity against Escherichia coli at 25 ug/mL by agar diffusion technique. The settings on record: read-out: IZ.
The subject of assay [9] is Aspergillus niger. The experiment in a line: Antifungal activity against Aspergillus niger at 25 ug/mL by agar diffusion technique. The settings on record: read-out: IZ.
Assay [10] relates to Aspergillus oryzae. The experiment in a line: Antifungal activity against Aspergillus oryzae at 25 ug/mL by agar diffusion technique. The following applies: read-out: IZ.

For the compound `O=c1c2c(ncn1/N=C/C1=C(Cl)c3ccccc3CC1)sc(=S)n2-c1ccccc1`, the “inhibition zone (IZ)” value in the assay on Bacillus subtilis [1] is given as 95 mm; in the assay with Priestia megaterium [2] it was 92 mm; in the assay on Escherichia coli [3], 85 mm; in the assay with Aspergillus niger [4], 78 mm; in the assay on Aspergillus oryzae [5] it was 86 mm.

For `Cc1csc(N/N=C/C2=C(Cl)c3ccccc3CC2)n1`, the “inhibition zone (IZ)” value with Bacillus subtilis [1] worked out at 55 mm; in the assay on Priestia megaterium [2], 60 mm; in the assay on Escherichia coli [3], 40 mm; in the assay with Aspergillus niger [4] it was 72 mm; in the assay with Aspergillus oryzae [5] it was 75 mm.

For `COc1ccc(/N=N/c2sc(N/N=C/C3=C(Cl)c4ccccc4CC3)nc2C)cc1`, the “inhibition zone (IZ)” value turned out to be 87 mm with Bacillus subtilis [1]; 85 mm in the assay on Priestia megaterium [2]; 50 mm in the assay on Escherichia coli [3]; 80 mm in the assay with Aspergillus niger [4]; 86 mm in the assay with Aspergillus oryzae [5].

`Nc1sc(=S)n(-c2ccccc2)c1C(=O)N/N=C/C1=C(Cl)c2ccccc2CC1`: the “inhibition zone (IZ)” value with Bacillus subtilis [1] is listed as 89 mm; with Priestia megaterium [2], 82 mm; in the assay on Escherichia coli [3], 60 mm; in the assay with Aspergillus niger [4], 64 mm; in the assay on Aspergillus oryzae [5], 75 mm.

`ClC1=C(/C=N/Nc2nc(-c3ccccc3)c(/N=N/c3ccccc3)s2)CCc2ccccc21`: the “inhibition zone (IZ)” value in the assay on Bacillus subtilis [1] was 85 mm; with Priestia megaterium [2], 79 mm; in the assay with Escherichia coli [3] it was 49 mm; with Aspergillus niger [4] it was 79 mm; in the assay with Aspergillus oryzae [5] it was 82 mm.

Consider `Cc1nc(N/N=C/C2=C(Cl)c3ccccc3CC2)sc1/N=N/c1ccccc1`, for which the “inhibition zone (IZ)” value with Bacillus subtilis [1] was 81 mm; in the assay with Priestia megaterium [2] it was 86 mm; in the assay with Escherichia coli [3], 60 mm; in the assay on Aspergillus niger [4], 84 mm; in the assay on Aspergillus oryzae [5], 89 mm.

On to `O=C(N[C@H](CO)[C@H](O)c1ccc([N+](=O)[O-])cc1)C(Cl)Cl` [CHLORAMPHENICOL], for which the zone of inhibition at 25 µg/mL was 30 mm in the assay on Bacillus subtilis [6], 55 mm with Priestia megaterium [7], 48 mm in the assay with Escherichia coli [8] and 35 mm in the assay with Aspergillus niger [9].

Regarding `O=C1/C(=C\c2ccc(Cl)cc2)S/C(=N\N=C\C2=C(Cl)c3ccccc3CC2)N1c1ccccc1`, the “inhibition zone (IZ)” value with Bacillus subtilis [1] was determined as 42 mm; with Priestia megaterium [2] it was 43 mm; with Aspergillus niger [4], 58 mm; in the assay on Aspergillus oryzae [5], 69 mm.

Consider `O=C1CS/C(=N\N=C\C2=C(Cl)c3ccccc3CC2)N1c1ccccc1`, for which the “inhibition zone (IZ)” value in the assay on Bacillus subtilis [1] turned out to be 66 mm; with Priestia megaterium [2] it was 55 mm; in the assay on Aspergillus niger [4], 63 mm; in the assay on Aspergillus oryzae [5], 71 mm.

As for `CCOC(=O)C1SC(N/N=C/C2=C(Cl)c3ccccc3CC2)=NC1=O` (configuration not stated), the “inhibition zone (IZ)” value amounted to 42 mm in the assay with Bacillus subtilis [1], 35 mm with Priestia megaterium [2], 69 mm in the assay on Aspergillus niger [4] and 73 mm in the assay with Aspergillus oryzae [5].

Take `COc1ccc(/N=N/c2sc(N/N=C/C3=C(Cl)c4ccccc4CC3)nc2-c2ccccc2)cc1`: the “inhibition zone (IZ)” value with Bacillus subtilis [1] was 90 mm; in the assay with Priestia megaterium [2], 84 mm; in the assay on Escherichia coli [3] it was 55 mm; in the assay with Aspergillus niger [4] it was 75 mm; with Aspergillus oryzae [5], 86 mm.

As to `OC(Cn1cncn1)(Cn1cncn1)c1ccc(F)cc1F` [FLUCONAZOLE], the zone of inhibition at 25 µg/mL in the assay with Aspergillus niger [9] was found to be 22 mm; in the assay with Aspergillus oryzae [10] it was 16 mm.

As to `O=C1N=C(N/N=C/C2=C(Cl)c3ccccc3CC2)S/C1=C/c1ccc(Cl)cc1`, the “inhibition zone (IZ)” value in the assay on Bacillus subtilis [1] was found to be 34 mm; with Priestia megaterium [2], 34 mm; in the assay with Escherichia coli [3] it was 25 mm; in the assay on Aspergillus niger [4], 75 mm; in the assay on Aspergillus oryzae [5] it was 74 mm.

Regarding `O=C1CSC(N/N=C/C2=C(Cl)c3ccccc3CC2)=N1`, the “inhibition zone (IZ)” value is reported as 35 mm in the assay on Bacillus subtilis [1]; 40 mm in the assay with Priestia megaterium [2]; 30 mm with Escherichia coli [3]; 66 mm in the assay with Aspergillus niger [4]; 78 mm in the assay on Aspergillus oryzae [5].

For `CC1(C)S[C@@H]2[C@H](NC(=O)[C@H](N)c3ccccc3)C(=O)N2[C@H]1C(=O)O` [AMPICILLIN], the zone of inhibition at 25 µg/mL in the assay on Bacillus subtilis [6] was determined as 40 mm; with Priestia megaterium [7] it was 29 mm; in the assay on Escherichia coli [8] it was 26 mm; in the assay with Aspergillus niger [9] it was 33 mm.

As for `ClC1=C(/C=N/Nc2nc(-c3ccccc3)cs2)CCc2ccccc21`, the “inhibition zone (IZ)” value in the assay on Bacillus subtilis [1] stood at 65 mm; with Priestia megaterium [2], 68 mm; in the assay with Escherichia coli [3] it was 56 mm; with Aspergillus niger [4], 77 mm; in the assay with Aspergillus oryzae [5], 79 mm.
